This is an account of results in patent US8530404B2, “Compounds and methods for treatment of cancer” (FibroGen, Inc., priority 2005, dated 2013).

Experiment [1] relates to BNIP3 gene expression. The experiment can be described thus: BNIP3 gene expression in MCF7 cells. The note with it: Homo sapiens; MCF7 cells; 20 μM; 20-24 hours; vs 0.5% DMSO control; read-out: fold-increase in BNIP3 mRNA expression. Type of experiment: cell-based. On the procedure:
(§1) To identify compounds useful in the methods of the present invention, the following studies were performed. The effect of compounds of the present invention on expression of various genes associated with anti-tumor activity (e.g., genes having anti-proliferative activity, genes having pro-apoptotic activity, genes having anti-tumor activity, etc.). In these experiments, the effect of compounds on BNIP3, BNIP3L, NDRG1, CDKN1C, and REDD1/RTP801 gene expression in various types of cultured tumor cells line was examined, including Hep3B cells (human hepatocellular carcinoma), Kelly neuroblastoma cells, and MCF7 cells (human breast cancer)
(§2) The effects of various compounds of the present invention on the expression of genes associated with tumor growth and progression were examined in MCF7 breast cancer cells as follows. In some experiments, MCF7 (ATCC) cells were plated in 96-well tissue culture dishes (approximately 20,000 cells per well) and cultured in DMEM media supplemented with 10% serum. The following day, the cells were washed and the media was replaced with DMEM containing 0.5% FBS. Various compounds of the present invention were added to the cultured cells to a final concentration of 20 μM, and the cells cultured for an additional 20-24 hours. DMSO (0.5%) was added to control cell cultures. RNA was isolated as described above. Changes in gene expression levels are presented as fold change compared to that of control (0.5% DMSO-treated) cultures.
In other experiments, MCF7 cells were plated in 96-well tissue culture dishes as described above. After 24 hours, the cells were washed and the media was replaced with DMEM containing 0.5% FBS. Various compounds of the present invention were added to the cultured cells to a final concentration of 20 μM. DMSO (0.5%) was added to control cell cultures. After 24 hours, changes in gene expression of BNIP3 and 18S RNA were determined directly using one-step quantitative multiplex RT-PCR reactions according to the manufacturer's instructions (QuantiTect Multiplex RT-PCR Kit, Qiagen, catalog no. 204643). Changes in gene expression levels are presented as fold change compared to that of control (0.5% DMSO-treated) cultures.

Experiment [2] concerns BNIP3 gene expression. The experiment can be described thus: BNIP3 gene expression in Kelly neuroblastoma cells. Format: cell-based. As to conditions: Kelly cells; 20 μM; 20-24 hours; normalized to 18S RNA; vs DMSO control; read-out: fold-increase in BNIP3 mRNA expression. On the procedure:
as §1
(§3) The effects of various compounds of the present invention on the expression of genes associated with tumor growth and progression were examined in Kelly neuroblastoma cells as follows. Kelly neuroblastoma cells were grown in RPMI media. For each experiment, Kelly neuroblastoma cells were added to 96-well tissue culture plates (approximately 40,000 cells per well) such that the plated cells reached confluence the following day. On the following day, the cells were washed and the media replaced with RPMI containing 0.5% FBS. Various compounds of the present invention were added to the cultured cells to a final concentration of 20 μM, and the cells cultured for an additional 20-24 hours. DMSO (0.5%) was added to control cell cultures.
(§4) RNA was isolated from the Kelly neuroblastoma cells using a commercial kit and used for the preparation of cDNA. BNIP3, CDKN1C, and 18S RNA levels were measured using commercial kits (18S, Applied Biosystems cat#4319413E); BNIP3, Applied Biosystems cat#HS00969293 MH). RNA levels for BNIP3 and CDKN1C were normalized to that of 18S RNA and is presented as fold-change compared to that observed in DMSO control cultures. Kelly cell NDRG1 and BNIP3L mRNA levels were measured by Affymetrix microarray in a separate study. Cells were harvested after 6 hours incubation with 20 μM test compound or DMSO (0.5%) as control. RNA was isolated and labeled probes were prepared and hybridized to U133 Plus 2.0 Affymetrix microarrays. Changes in gene expression levels are presented as fold change compared to that of control (0.5% DMSO-treated) cultures.

The test system of experiment [3] is CDKN1C gene expression. Put plainly: CDKN1C gene expression in MCF7 cells. Type of experiment: cell-based. The note with it: Homo sapiens; MCF7 cells; 20 μM; 20-24 hours; vs 0.5% DMSO control; read-out: fold-increase in CDKN1C mRNA expression. On the procedure:
as §1, §2

The subject of experiment [4] is CDKN1C gene expression. Put plainly: CDKN1C gene expression in Kelly neuroblastoma cells. The note with it: Kelly cells; 20 μM; 20-24 hours; normalized to 18S RNA; vs DMSO control; read-out: fold-increase in CDKN1C mRNA expression. Type of experiment: cell-based. How it is done: as §1, §3, §4
Experiment [5] deals with BNIP3 gene expression. The experiment can be described thus: In vivo BNIP3 gene expression in Swiss Webster mice (quantitative PCR). As to conditions: Mus musculus, iv, 4 h; kidney; single 60 mg/kg i.v. dose; four hours after administration; normalized to 18S; read-out: fold change in BNIP3 mRNA level. How it is done: (§5) The effects of various compounds of the present invention on the expression of genes associated with tumor growth and progression (e.g., expression of genes associated with anti-proliferative effects) were examined in vivo as follows. In these studies, male Swiss Webster mice (25 g) were administered a single intravenous (i.v.) dose of various compounds (60 mg/kg) of the present invention via the tail vein. Four hours after administration of compound, the kidneys and liver were removed and preserved in RNAlater (Ambion). RNA isolation and cDNA synthesis was carried out as follows. Murine kidney tissue was added to TRIzol (Invitrogen) and homogenized using a 5-mm stainless steel bead for 4 minutes at 25 Hz in a Mixer Mill 300 (Qiagen). Homogenates were extracted with chloroform according to the manufacturer's instructions and aqueous supernatants were isolated. The aqueous supernatants were combined with equal volumes of 70% ethanol and then loaded onto RNeasy Mini spin columns (Qiagen). RNA was isolated according to the manufacturer's instructions.
(§6) Synthesis of cDNA from the isolated total RNA was carried out using Omniscript reverse transcriptase (Qiagen) and random primers according to the manufacturer's instructions. Measurement of gene expression levels in compound-treated animals and in vehicle-treated control animals was performed by quantitative PCR using TaqMan Universal PCR Master Mix (Applied Biosystems) and TaqMan Assay-on-Demand assays (Applied Biosystems) in a Prism 7000 system instrument (Applied Biosystems), according to manufacturer's instructions. The assays used were as follows: 18S ribosomal RNA, Hs99999901_s1; BNIP3, Mm00833810_g1; BNIP3L, Mm00786306_s1; NDRG1, Mm00440447_m1. Each PCR amplification reaction included a standard curve and a water blank. Data for gene expression levels for BNIP3, BNIP3L, and NDRG1 were normalized to that of 18S ribosomal RNA within each sample. Data is presented as fold change in specific mRNA levels relative to that of non-treated control animals.

Experiment [6] deals with BNIP3L gene expression. The experiment can be described thus: In vivo BNIP3L gene expression in Swiss Webster mice (quantitative PCR). As to conditions: Mus musculus, iv, 4 h; kidney; single 60 mg/kg i.v. dose; four hours after administration; normalized to 18S; read-out: fold change in BNIP3L mRNA level. On the procedure: as §5, §6
In experiment [7] the test system is NDRG1 gene expression. Put plainly: In vivo NDRG1 gene expression in Swiss Webster mice (quantitative PCR). The note with it: Mus musculus, iv, 4 h; kidney; single 60 mg/kg i.v. dose; four hours after administration; normalized to 18S; read-out: fold change in NDRG1 mRNA level. How it is done: as §5, §6
In experiment [8] the test system is BNIP3 gene expression. The experiment can be described thus: BNIP3 gene expression in Hep3B cells (Affymetrix microarray). Type of experiment: cell-based, human. The note with it: 25 μM, vs DMSO control. On the procedure:
as §1
(§7) The effects of various compounds of the present invention on the expression of genes associated with tumor growth and progression were examined in Hep3B cells as follows. Hep3B cells (ATCC) were cultured in DMEM containing 8% fetal bovine serum (FBS) and antibiotics. For each experiment, Hep3 cells were added to 6-well tissue culture dishes (approximately 500,000 cells per well). After 8 hours, the media was replaced with DMEM containing 0.5% FBS. Sixteen hours later, various compounds of the present invention were added to the cultured cells to a final concentration of 25 μM. The cells were then harvested and added to RNA extraction buffer (RNeasy, Qiagen). RNA was isolated from cell lysates using RNeasy Mini spin columns (Qiagen) according to the manufacturer's instructions. Changes in expression of various gene transcript levels associated with tumor growth and progression were determined by Affymetrix microarray. Labeled probes were prepared and hybridized to U133A Affyrnetrix microarrays.
(§8) Changes in gene expression levels in vitro following compound addition are presented as fold change relative to gene expression levels observed in control cells treated with DMSO only. Data represents the average of two independent studies.

Experiment [9] deals with BNIP3L gene expression. Put plainly: BNIP3L gene expression in Hep3B cells (Affymetrix microarray). Format: cell-based, human. The note with it: 25 μM, vs DMSO control. On the procedure: as §1, §7, §8
Experiment [10] relates to NDRG1 gene expression. The experiment can be described thus: NDRG1 gene expression in Hep3B cells (Affymetrix microarray). As to conditions: 25 μM, vs DMSO control. Type of experiment: cell-based, human. How it is done: as §1, §7, §8
In experiment [11] the test system is REDD1/RTP801 gene expression. Put plainly: REDD1/RTP801 gene expression in Hep3B cells (Affymetrix microarray). Format: cell-based, human. The note with it: 25 μM, vs DMSO control. On the procedure:
as §1, §7, §8

Experiment [12] has as its system HCT116-GFP colon tumors. Put plainly: Orthotopically implanted human HCT116-GFP colon tumor mouse xenograft (Example 4). Format: in vivo. As to conditions: 60 mg/kg intraperitoneal at four day intervals, three doses. How it is done:
Procedures were carried out as described above for Example 3, except that the tumors of GFP-transfected H-460 cells were replaced with HCT116-GFP colon tumors, and surgical orthotopic implantation was directly into colon tissue.
The HCT116 tumor model used here is a well-characterized representative colon xenograft model. The isolation of the human HCT116 tumor cell line from a human colon carcinoma has been described. (Brattain et al (1981) Cancer Res 41:1751-1756.) To aid in the detection of tumors and metastases, HCT116 cells were transduced with genes directing the expression of fluorescent proteins (e.g., HCT116-GFP). The use of fluorescent HCT116-derived tumors in similar studies has been described previously. (Ross et al (2000) Nat Genet 24:227-235.)
HCT116-GFP tumor fragments harvested from the stock animals were transplanted into animals by surgical orthotopic implantation (SOI) as follows. The animals were anesthetized with isoflurane and the surgical area was sterilized using iodine and alcohol. After proper exposure of the colon following a lower midline abdominal incision, the serosa of the colon was removed and two pieces of 1 mm^3 tumor fragments per mouse were implanted. An 8-0 surgical suture was used to penetrate these small tumor pieces and suture them on the wall of the intestine. The intestine was then returned to the abdominal cavity. The incision in the abdominal wall was closed with a 6-0 surgical suture in one layer. The animals were kept under isoflurane anesthesia during surgery. All procedures of the operation described above were performed under a 7× magnification microscope (Olympus). Animals were kept in a barrier facility under HEPA filtration.
Administration of Compound A or 5-FU (5-Flurouracil) to the animals was initiated three days following tumor transplantation. 5-FU, a chemotherapeutic agent used as a positive control, was administered by intraperitoneal injection (60 mg/kg) at four day intervals for a total of three doses. Compound A was administered at either 20 mg/kg or 60 mg/kg three times per week. Tumor volumes were measured at day 15, day 22, and day 29.

`O=C(O)CNC(=O)c1ncc2cc(Cl)c(Cl)cc2c1O` [Compound J, [(6,7-Dichloro-4-hydroxy-isoquinoline-3-carbonyl)-amino]-acetic acid]: the fold induction at 20 µM in experiment [1] came to 3.3; in experiment [2], 8.9; in experiment [3] it was 0.8; in [4], 6.9. Also, the fold induction at 60 mg/kg in experiment [5] is 2; in experiment [6], 1.3; in [7] it was 1.7.

`COc1ccc2c(O)c(C(=O)NCC(=O)O)nc(Cl)c2c1` [Compound I, [(1-Chloro-4-hydroxy-7-methoxy-isoquinoline-3-carbonyl)-amino]-acetic acid]: the “fold-increase in BNIP3 mRNA expression” value in [8] was found to be 2.1 fold. Also, the “fold-increase in BNIP3L mRNA expression” value in experiment [9] is listed as 1.7 fold. Moreover, the “fold-increase in NDRG1 mRNA expression” value in [10] turned out to be 3.3 fold. The “fold-increase in REDD1/RTP801 mRNA expression” value in experiment [11] amounted to 3.8 fold.

`C[C@H](NC(=O)c1ncc2cc(Sc3ccccc3)ccc2c1O)C(=O)O` [Compound L, (S)-2-[(4-Hydroxy-7-phenylsulfanyl-isoquinoline-3-carbonyl)-amino]-propionic acid]: the fold induction at 20 µM in experiment [1] was 4.8; in experiment [2], 32.8; in experiment [3] it was 0.2; in [4], 120. Moreover, the fold induction at 60 mg/kg worked out at 2.8 in experiment [5], 3.4 in experiment [6] and 1 in experiment [7].

Take `COc1ccc(CCN(CCC(=O)NO)S(=O)(=O)c2ccc(NC(=O)N(Cc3ccccc3)Cc3ccccc3)cc2)cc1` [Compound G, 3-{[4-(3,3-Dibenzyl-ureido)-benzenesulfonyl]-[2-(4-methoxy-phenyl)-ethyl]-amino}-N-hydroxy-propionamide]: in experiment [8], the “fold-increase in BNIP3 mRNA expression” value worked out at 4.2 fold. Moreover, the “fold-increase in BNIP3L mRNA expression” value in experiment [9] came to 4.3 fold. Moreover, in experiment [10], the “fold-increase in NDRG1 mRNA expression” value is 6.8 fold. Further, the “fold-increase in REDD1/RTP801 mRNA expression” value in [11] was 14.1 fold.

For `O=C(O)CNC(=O)c1nc(Oc2ccccc2)c2cc(Oc3ccccc3)ccc2c1O` [Compound M, [(4-Hydroxy-1,7-diphenoxy-isoquinoline-3-carbonyl)-amino]-acetic acid], the fold induction at 20 µM came out at 0.4 in experiment [1], 27.6 in experiment [2], 2.1 in experiment [3] and 3.4 in experiment [4].

Regarding `O=c1[nH]cc(F)c(=O)[nH]1` [Compound 5-FU, 5-Flurouracil, reference compound], the “mean tumor volume (calipers, mean +/- SD)” value is listed as 0 +/− 0 in [12] (Treatment Day 15), 1 +/− 4 in [12] (Treatment Day 22) and 8 +/− 13 in experiment [12] (Treatment Day 29).
